This data set can be described thus: Saturation solubility of taxol. In kind it is physicochemical. Particulars: pH 7.4, aqueous buffer.

≈ marks a conversion by molar mass, not a printed value.

With `CC(=O)O[C@H]1C(=O)[C@@]2(C)[C@H]([C@H](OC(=O)c3ccccc3)[C@]3(O)C[C@H](OC(=O)[C@H](O)[C@@H](NC(=O)c4ccccc4)c4ccccc4)C(C)=C1C3(C)C)[C@]1(OC(C)=O)CO[C@@H]1C[C@@H]2O` [taxol], the solubility was determined as 0.32 µg/mL (≈ 0.375 µM).

(Values after patent EP0923943A1, “MICELLAR AQUEOUS COMPOSITION AND METHOD FOR SOLUBILIZING HYDROPHOBIC DRUG” (TAISHO PHARMACEUTICAL CO. LTD, priority 1996, dated 1997).)
